# Assay results published in US20240199604A1, “SUPRAMOLECULAR POLYMER THERAPEUTICS AND DIAGNOSTICS” (The Regents of the University of California, priority 2022, published 2024).
# System: tau paired-helical filaments (PHFs)
# Test: Cryo-EM co-structure with Alzheimer's disease tau paired helical filaments
# Assay type: binding, human
# Conditions: AD tau PHF incubated with 20 uM GTP-1, cryo-EM
# Procedure: Samples were incubated with 20 uM GTP-1 prior to vitrification. […] The micrograph images and their 2D classification reveal well-resolved filaments primarily in the PHF conformation, with crossover distances ranging from 700-800 Å. A minor population of straight filaments (SF) was also identified; however, further structural characterization was not feasible due to limited abundance. […] The PHF structure is comprised of two protofilaments related by two-fold symmetry with a 2.37 Å rise and 179.450 twist, consistent with previously reported structures of PHFs prepared from AD brains (13, 15). […]
# Cryo-EM sample preparation and data collection. […] For the tau PHF, 3 μL of purified filaments mixed with GTP-1 was added to a glow-discharged 200 mesh 1.2/1.3R Au Quantifoil grid for 10 seconds before blotting for 2 seconds, and then a second 3 μL aliquot was added for 3 seconds and blotted for 1 second before being plunge frozen in liquid ethane using a FEI Vitrobot Mark IV (Thermo Fisher Scientific). For the synuclein ligands, 3 μL of purified filaments mixed with compound was added to a 200 mesh 1.2/1.3R Au Quantifoil grid coated with a 2 nm thick layer of carbon, which had not been glow discharged. […]
row,SMILES,binding site on tau filament
1,[2H]C([2H])([18F])CC1CCN(c2ccn3c(n2)nc2ccccc23)CC1 [GTP-1],bound to a solvent exposed cleft (residues 351-360)

# Target: T1, α-synuclein fibrils isolated from an MSA patient sample (Homo sapiens, UniProt P37840)
# T1 construct: fresh-frozen tissue from the cerebellum of patients clinically and neuropathologically diagnosed with MSA; from tissue; host or cells: cerebellum of MSA patients (sarkosyl-insoluble fraction)
# Test: Cryo-EM co-structure with α-synuclein fibrils from MSA patient samples
# Assay type: binding
# Conditions: fibrils from MSA patient sample, cryoelectronic microscopy
# Procedure: MSA filament purification. Filament purification was based on Schweigenhauser et al., 2020^2. Briefly, 1-2 g of fresh-frozen tissue from the cerebellum of patients clinically and neuropathologically diagnosed with MSA was homogenized at 20 mL/g of tissue in 10 mM Tris-HCl (pH 7.4), 800 mM NaCl, 1 mM EGTA, and 10% sucrose. A final concentration of 1% N-laurosarcosinate (w/v) was added to the homogenates, and these mixtures were incubated at 37° C. for 30 minutes. Homogenates were then centrifuged at 10,000 g for 10 minutes, and the supernatant was kept and then centrifuged at 100,000 g for 20 minutes. The pellets were resuspended at 500 μL/g of frozen tissue in 10 mM Tris-HCl (pH 7.4), 800 mM NaCl, 1 mM EGTA, and 10% sucrose. This was followed by another centrifugation at 3,000 g for 5 minutes. The supernatant was kept and diluted threefold with 50 mM Tris-HCl (pH 7.4), 150 mM NaCl, 10% sucrose, and 2% sarkosyl, followed by another centrifugation at 150,000 g for 1 hour. The final pellet resuspended in 30 mM Tris-HCl (pH 7.4) at a concentration of […] frozen tissue.
# Cryo-EM sample preparation and data collection. Purified frontal cortex and cerebellum tissue was incubated with 20 μM ligand for 45 minutes prior to freezing. For the tau PHF, 3 μL of purified filaments mixed with GTP-1 was added to a glow-discharged 200 mesh 1.2/1.3R Au Quantifoil grid for 10 seconds before blotting for 2 seconds, and then a second 3 μL aliquot was added for 3 seconds and blotted for 1 second before being plunge frozen in liquid ethane using a FEI Vitrobot Mark IV (Thermo Fisher Scientific). For the synuclein ligands, 3 μL of purified filaments mixed with compound was added to a 200 mesh 1.2/1.3R Au Quantifoil grid coated with a 2 nm thick layer of carbon, which had not been glow discharged. After 30 seconds, grids were blotted for 7.5 seconds at room temperature and 100% humidity. Grids were plunge frozen in liquid ethane using a FEI Vitrobot Mark IV. […] A defocus range of 0.8 to 1.8 μm was used with a total exposure time of 2.024 seconds fractionated into 0.025 seconds subframes. The total dose for each movie was 46 electrons/Å^2. Movies were motion-corrected using MotionCor2^3 in Scipion^4 and were Fourier cropped by a factor of 2 to a final pixel size of 0.834 Å per pixel.
# Image processing. All image processing was done in RELION 4^5, and the same workflow was used for each dataset. Dose-weighted summed micrographs were imported into RELION 4. The contrast transfer function was estimated using CTFFIND-4.1^6. Filaments were manually picked and then segments were extracted with a box size of 900 pixels downscaled to 300 pixels. Contaminants and segments contributing to straight filaments were separated out using reference-free 2D class averaging. The remaining segments were re-extracted with a box size of 288 pixels without downscaling. An initial model was generated from a cylinder in RELION. One or more rounds of 3D classification with image alignment were performed, with helical rise and […] parameters fixed to eliminate obvious junk particles. One or more rounds of 3D auto-refinement was run using the best map from 3D classification low-pass filtered to 10 Å, allowing rise and twist parameters to vary. Maps were sharpened using the standard post-processing procedures in RELION.
# Model building, refinement, and analysis. Prior to ligand placement, a single strand of a previously solved MSA or tau PHF filament stutr^2 (PDB: 6XYQ) was refined against the density using Phenix^7. Refinement of the ligand binding pocket was done in COOT^8. Ligands were placed by hand in the density using Chimera^9. This model was then translated to give a stack spanning 5 rungs.
row,SMILES,co-structure of supramolecular polymeric inhibitor with α-synuclein fibrils
1,"CNc1nc(=O)n(-c2nc(-c3cccc(C)c3)oc2-c2ccc(Cl)c(F)c2)cc1F [Compound 83, 1-(5-(4-chloro-3-fluorophenyl)-2-(m-tolyl)oxazol-4-yl)-5-fluoro-4-(methylamino)pyrimidin-2 (1H)-one]",bound to fibrils isolated from an MSA patient sample
2,CNc1nc(=O)n(-c2nc(-c3cc(C)cc(C)n3)oc2-c2ccc(F)c(F)c2)cc1F [compound 294],bound to fibrils isolated from an MSA patient sample
3,"CNC(=O)c1ncc2c(-c3ccnc(C(C)(F)F)n3)nn(-c3ccc(Cl)cc3)c2n1 [Compound 22, 1-(4-chlorophenyl)-3-(2-(1,1-difluoroethyl)pyrimidin-4-yl)-N-methyl-1H-pyrazolo[3,4-d]pyrimidine-6-carboxamide]",bound to fibrils isolated from an MSA patient sample
4,"CNc1nc(=O)n(-c2nc(-c3cccc(Cl)c3)oc2-c2ccc(Cl)c(F)c2)cc1F [Compound 125, 1-(5-(4-chloro-3-fluorophenyl)-2-(3-chlorophenyl)oxazol-4-yl)-5-fluoro-4-(methylamino)pyrimidin-2 (1H)-one]",bound to fibrils isolated from an MSA patient sample
5,O=c1nc2c(ccn2C(F)(F)F)cn1-c1nc(-c2ccnc(C3CC3)n2)oc1-c1ccc(F)cc1 [compound 293],bound to fibrils isolated from an MSA patient sample
6,"O=C(Cn1cc(-c2ccoc2)c(=O)c2ccc(N3CCCC3)cc21)Nc1ccccc1C(F)(F)F [Compound 149, 2-[3-(furan-3-yl)-4-oxo-7-(pyrrolidin-1-yl)-1,4-dihydroquinolin-1-yl]-N-[2-(trifluoromethyl)phenyl]acetamide]",bound to fibrils isolated from an MSA patient sample
7,Cc1nccc2cc(-c3nc(-n4ccc5cccnc5c4=O)c(-c4ccc(C(F)(F)F)cc4)o3)ccc12 [compound 427],bound to fibrils isolated from an MSA patient sample

# Same assay, conditions: α-synuclein fibril from an MSA patient, SEQ ID NO: 9
row,SMILES,binding site on α-synuclein fibril
1,"CNC(=O)c1ncc2c(-c3ccnc(C(C)(F)F)n3)nn(-c3ccc(Cl)cc3)c2n1 [Compound 22, 1-(4-chlorophenyl)-3-(2-(1,1-difluoroethyl)pyrimidin-4-yl)-N-methyl-1H-pyrazolo[3,4-d]pyrimidine-6-carboxamide]",bound to residues 86-99
